Assay [1] has as its system breast muscle mitochondria. In words: H2O2 production (electron leak) in breast muscle mitochondria with respiratory chain inhibitors. It is filed as biochemical, broilers.
For another assay, the system named is leg muscle mitochondria. In words: H2O2 production (electron leak) in leg muscle mitochondria with respiratory chain inhibitors. The following applies: low FE leg muscle mitochondria; versus no inhibitor (NI); rotenone 10 μM; P<0.07. It is filed as biochemical, broilers.
The mark [2] stands for this setting: breast muscle mitochondria, inhibition at Complex II or Q cycle of Complex III, malonate 7 μM, TTFA 8 μM, myxothiazol 13 μM.
The mark [3] stands for this setting: low FE breast muscle mitochondria, versus no inhibitor (NI), rotenone 10 μM, antimycin A 13 μM.

With `O=C(CC(=O)C(F)(F)F)c1cccs1` [TTFA, 4,4,4-trifluoro-1-[2-thienyl]-1,3-butanedione], the H2O2 production entry in assay [1] (setting [2]) is given as “No differences were observed”.
For the molecule `O=C(O)CC(=O)O` [malonate], in assay [1] (setting [2]), the H2O2 production entry is recorded as “No differences were observed”.
For `CO/C(=C/C(N)=O)[C@H](C)[C@H](/C=C/c1csc(-c2csc([C@@H](C)/C=C/C=C/C(C)C)n2)n1)OC` [myxothiazol], the H2O2 production result in assay [1] (setting [2]) is reported as “No differences were observed”.
As to `C=C(C)[C@H]1Cc2c(ccc3c2O[C@@H]2COc4cc(OC)c(OC)cc4[C@@H]2C3=O)O1` [rotenone], the H2O2 production entry is given as “raised H2O2 production” in assay [1] (setting [3]) and “an elevation” in the assay on leg muscle mitochondria.
Turning to antimycin A, in assay [1] (setting [3]), the H2O2 production entry was “raised H2O2 production”.

The values above are taken from patent US20060154255A1, “Blood and tissue sample assessment of mitochondrial function and biochemistry as a tool for selection for feed efficiency and other production parameters” (priority 2002, published 2006).
